{"source": "paper PMC6024615", "about": "“Effect of Biliary Drainage on the Toxicity and Toxicokinetics of Amanita exitialis in Beagles” (Toxins, 2018)", "key": {"[1]": {"assay": "Peptide toxins in the urine of beagles with biliary drainage", "format": "in vivo, beagle dogs", "settings": "for Total (accumulated) amount excreted in urine / percentage of total urine excretion, Total: 0–4 days", "experimental": "The study was approved by National Institute of Occupational Health and Poison Control review board for animal experiments. Twenty-four male beagles (age, 8–10 months; weight, 10 ± 1 kg) were obtained from Beijing Institute of Xieerxin Biology Resource (Beijing, China). They were randomly divided into four groups of six animals each: control, biliary drainage, and 20 and 60 mg/kg with biliary drainage groups. The biliary drainage operation was conducted in all groups barring the control group. The dogs were dressed in homemade underwear, coats, and Elizabeth circles for a week to ensure pre-experimental acclimatization (Figure S8a–c). After determining the baseline values for biochemical indicators, the dogs were fasted for 24 h but received water ad libitum. They were anesthetized by intravenous administration of pentobarbital sodium (3%, 1 mL/kg) during the surgery. A temperature of 38–39 °C was maintained with a warming mat. After skin preservation and sterilization, the abdominal cavity was opened through the central abdomen. The abdomen was explored and blunt dissection of the common bile duct was performed (Figure S8d). The common bile duct and its branches were ligated from the intestinal side. A 7.0-Fr drainage catheter (COOK, Bloomington, IN, USA) was percutaneously inserted into the gallbladder, and a medical drainage bag was connected to the drainage catheter coming out of the abdominal cavity. Each opened layer, including the peritoneum, abdominal wall muscle, and skin, was closed with suture. The operative incision was protected with sterile gauze and a bandage, and the dogs were dressed in homemade underwear, coats, and Elizabeth circles. The drainage bag was placed in the pocket of the coat (Figure S8e). After the anesthetic wore off, the dogs were placed in cages, and food and water were provided ad libitum. The operative incision was sterilized with iodophor twice a day until stitches were removed six days after surgery. The drainage bag was replaced every day. On the eighth day after surgery, the 20 and 60 mg/kg with biliary drainage groups were orally administered a lyophilized powder of Amanita exitialis in starch capsules. In control and bile drainage group, the beagle dogs were fed with empty capsules. Immediately after dosing, the animals were placed in their cages, and food and water were provided ad libitum. Dogs were sacrificed with an overdose of sodium pentobarbital at the end of the experiment. All procedures were performed according to the ethical standards of the National Institutes of Health Guide for Animal Welfare and approved by the Institutional Animal Care and Use Committee (EAWE-2017-005).\nPeptide toxins in blood and urine samples were analyzed as described previously. Bile samples from Days 0–1, Days 1–2, Days 2–3, and Days 3–4 were collected and stored in medical drainage bags and the bile volume was recorded. Plasma and urine samples were stored at 2–8 °C until analysis for peptide toxins.\nUPLC and MS/MS parameters were as described in our previous study. The limit of detection and limit of quantitation of each toxin in the bile were 0.03 mg/kg and 0.5 mg/kg, respectively."}, "[2]": {"settings": "cited from earlier work", "experimental": "The difference in detectable time in the urine can be explained by the low level of internal exposure (amatoxins in the blood). […] The daily amounts of peptide toxins excreted in urine in beagles without biliary drainage(mg). Time after α-Amanitin β-Amanitin Phallacidin ingestion 20 mg/kg 60 mg/kg 20 mg/kg 60 mg/kg 20 mg/kg 60 mg/kg group group group group group group 0-1d 0.0379 0.0593 0.0156 0.0251 0.0035 0.0088 (97.9%) (92.8%) (99.9%) (94.7%) (94.2%) (76%) 1-2d 0.0388 0.0618 0.01567 0.0255 0.0037 0.0110 (99.995%) (97.5%) (100%) (96.2%) (100%) (93%) 2-3d 0.0002 0.0626 0 0.0260 0 0.0115 (100%) (99.4%) (100%) (98.2%) (100%) (97.3%) 3-4d 0 0.063 ..."}, "[3]": {"settings": "0–1 days, 60 mg/kg with biliary drainage group"}, "[4]": {"settings": "20 mg/kg with biliary drainage group"}, "[5]": {"settings": "60 mg/kg with biliary drainage group"}, "[6]": {"settings": "1–2 days, 20 mg/kg with biliary drainage group"}, "[7]": {"settings": "1–2 days, 60 mg/kg with biliary drainage group"}, "[8]": {"settings": "2–3 days, 20 mg/kg with biliary drainage group"}, "[9]": {"settings": "2–3 days, 60 mg/kg with biliary drainage group"}, "[10]": {"settings": "3-4d, 20 mg/kg with biliary drainage group"}, "[11]": {"settings": "3-4d, 60 mg/kg with biliary drainage group"}, "[12]": {"settings": "3–4 days, 20 mg/kg with biliary drainage group"}, "[13]": {"settings": "3–4 days, 60 mg/kg with biliary drainage group"}}, "note": "Like-named read-outs stand apart in the source and are kept apart here. *1 amine or outer side, *2 acyl side, *3 side chain or, on linkers, in order; H or OH if unused. Where a SMILES comes first, the peptide text is derived from it. Bridges are numbered along the chain shown (N, C = ends). [ ]: non-standard residue; d: D form. Trp(2-yl) = O=C([C@H](Cc1c([*:3])[nH]c2ccccc12)N[*:1])[*:2]; Leu(4R-OH,5-OH) = C[C@](O)(CO)C[C@H](N)C(=O)O; dAsp(3S-OH) = N[C@@H](C(=O)O)[C@H](O)C(=O)O; cisHyp = O=C(O)[C@@H]1C[C@H](O)CN1", "data": [{"compound": "CC(C)[C@@H]1NC(=O)[C@H](C[C@@](C)(O)CO)NC(=O)[C@@H]2Cc3c([nH]c4ccccc34)SC[C@H](NC(=O)[C@@H]([C@H](O)C(=O)O)NC1=O)C(=O)N1C[C@@H](O)C[C@H]1C(=O)N[C@@H](C)C(=O)N2", "note": "[phallacidin] (cyclo(A[Trp(2-yl)][Leu(4R-OH,5-OH)]V[dAsp(3S-OH)]C[cisHyp]); thioether 2-6)", "values": [{"measurement": "detection rate of peptide toxins in urine", "setting": "[1]; 0-1 d, 20 mg/kg with biliary drainage group", "value": 100, "unit": "%"}, {"measurement": "detection rate of peptide toxins in urine", "setting": "[1]; 0-1 d, 60 mg/kg with biliary drainage group", "value": 100, "unit": "%"}, {"measurement": "daily amount excreted in urine", "setting": "[1]; 0–1 days, 20 mg/kg with biliary drainage group", "value": 0.0012, "unit": "mg"}, {"measurement": "percentage of total urine excretion excreted daily", "setting": "[1]; 0–1 days, 20 mg/kg with biliary drainage group, 20 mg/kg", "value": "more than 90%"}, {"measurement": "percentage of total urine excretion excreted daily", "setting": "[1]; 0–1 days, 20 mg/kg with biliary drainage group, listed as Phallacidin, 20 mg/kg", "value": 92.2, "unit": "%"}, {"measurement": "daily amount excreted in urine", "setting": "[1]; [3]", "value": 0.0017, "unit": "mg"}, {"measurement": "percentage of total urine excretion excreted daily", "setting": "[1]; [3]", "value": 70.5, "unit": "%"}, {"measurement": "Total (accumulated) amount excreted in urine", "setting": "[1]; [4]", "value": 0.0014, "unit": "mg"}, {"measurement": "percentage of total urine excretion, Total", "setting": "[1]; [4]", "value": 100, "unit": "%"}, {"measurement": "Total (accumulated) amount excreted in urine", "setting": "[1]; [5]", "value": 0.0025, "unit": "mg"}, {"measurement": "percentage of total urine excretion, Total", "setting": "[1]; [5]", "value": 100, "unit": "%"}, {"measurement": "time within which toxin was detected in urine", "setting": "[1]; [4]", "value": "two"}, {"measurement": "time within which toxin was detected in urine", "setting": "[1]; [5]", "value": "three"}, {"measurement": "detection rate of peptide toxins in urine", "setting": "[1]; 1-2 d, 20 mg/kg with biliary drainage group", "value": 83, "unit": "%"}, {"measurement": "detection rate of peptide toxins in urine", "setting": "[1]; 1-2 d, 60 mg/kg with biliary drainage group", "value": 100, "unit": "%"}, {"measurement": "daily amount excreted in urine", "setting": "[1]; [6]", "value": 0.0001, "unit": "mg"}, {"measurement": "percentage of total urine excretion excreted daily", "setting": "[1]; [6]", "value": 7.8, "unit": "%"}, {"measurement": "daily amount excreted in urine", "setting": "[1]; [7]", "value": 0.0005, "unit": "mg"}, {"measurement": "percentage of total urine excretion excreted daily", "setting": "[1]; [7]", "value": 22.1, "unit": "%"}, {"measurement": "detection rate of peptide toxins in urine", "setting": "[1]; 2-3 d, 20 mg/kg with biliary drainage group", "value": 0, "unit": "%"}, {"measurement": "toxin content in urine", "setting": "[1]; 2-3d, 20 mg/kg with biliary drainage group, mean ± SD", "value": 0, "unit": "µg/L"}, {"measurement": "detection rate of peptide toxins in urine", "setting": "[1]; 2-3 d, 60 mg/kg with biliary drainage group", "value": 50, "unit": "%"}, {"measurement": "daily amount excreted in urine", "setting": "[1]; [8]", "value": "0(0%) mg"}, {"measurement": "percentage of total urine excretion excreted daily", "setting": "[1]; [8]", "value": "0(0%)"}, {"measurement": "daily amount excreted in urine", "setting": "[1]; [9]", "value": 0.0002, "unit": "mg"}, {"measurement": "percentage of total urine excretion excreted daily", "setting": "[1]; [9]", "value": 7.5, "unit": "%"}, {"measurement": "detection rate of peptide toxins in urine", "setting": "[1]; [10]", "value": 0, "unit": "%"}, {"measurement": "toxin content in urine", "setting": "[1]; [10]", "value": 0, "unit": "µg/L"}, {"measurement": "detection rate of peptide toxins in urine", "setting": "[1]; [11]", "value": 0, "unit": "%"}, {"measurement": "toxin content in urine", "setting": "[1]; [11]", "value": 0, "unit": "µg/L"}, {"measurement": "daily amount excreted in urine", "setting": "[1]; [12]", "value": "0(0%) mg"}, {"measurement": "percentage of total urine excretion excreted daily", "setting": "[1]; [12]", "value": "0(0%)"}, {"measurement": "daily amount excreted in urine", "setting": "[1]; [13]", "value": "0(0%) mg"}, {"measurement": "percentage of total urine excretion excreted daily", "setting": "[1]; [13]", "value": "0(0%)"}, {"measurement": "share of total urine excretion in the 0–2-day urine", "setting": "[1]; beagles with biliary drainage, both dose groups", "value": "more than 90%"}, {"measurement": "daily amount excreted in urine, without biliary drainage", "setting": "[2]; 0-1d, 20 mg/kg group", "value": 0.0035, "unit": "mg"}, {"measurement": "percentage in parentheses, urine, without biliary drainage", "setting": "[2]; 0-1d, 20 mg/kg group", "value": 94.2, "unit": "%"}, {"measurement": "daily amount excreted in urine, without biliary drainage", "setting": "[2]; 0-1d, 60 mg/kg group", "value": 0.0088, "unit": "mg"}, {"measurement": "percentage in parentheses, urine, without biliary drainage", "setting": "[2]; 0-1d, 60 mg/kg group", "value": 76, "unit": "%"}, {"measurement": "Accumulative amount excreted in urine, without biliary drainage", "setting": "[2]; 20 mg/kg group", "value": 0.0037, "unit": "mg"}, {"measurement": "percentage in parentheses, Accumulative amount, urine, without biliary drainage", "setting": "[2]; 20 mg/kg group", "value": 100, "unit": "%"}, {"measurement": "percentage in parentheses, Accumulative amount, urine, without biliary drainage", "setting": "[2]; 60 mg/kg group", "value": 100, "unit": "%"}, {"measurement": "percentage in parentheses, urine, without biliary drainage", "setting": "[2]; 1-2d, 20 mg/kg group", "value": 100, "unit": "%"}, {"measurement": "daily amount excreted in urine, without biliary drainage", "setting": "[2]; 1-2d, 60 mg/kg group", "value": 0.0110, "unit": "mg"}, {"measurement": "percentage in parentheses, urine, without biliary drainage", "setting": "[2]; 1-2d, 60 mg/kg group", "value": 93, "unit": "%"}, {"measurement": "daily amount excreted in urine, without biliary drainage", "setting": "[2]; 2-3d, 20 mg/kg group", "value": 0, "unit": "mg"}, {"measurement": "percentage in parentheses, urine, without biliary drainage", "setting": "[2]; 2-3d, 20 mg/kg group", "value": 100, "unit": "%"}, {"measurement": "daily amount excreted in urine, without biliary drainage", "setting": "[2]; 2-3d, 60 mg/kg group", "value": 0.0115, "unit": "mg"}, {"measurement": "percentage in parentheses, urine, without biliary drainage", "setting": "[2]; 2-3d, 60 mg/kg group", "value": 97.3, "unit": "%"}, {"measurement": "daily amount excreted in urine, without biliary drainage", "setting": "[2]; 3-4d, 20 mg/kg group", "value": 0, "unit": "mg"}, {"measurement": "percentage in parentheses, urine, without biliary drainage", "setting": "[2]; 3-4d, 20 mg/kg group", "value": 100, "unit": "%"}, {"measurement": "daily amount excreted in urine, without biliary drainage", "setting": "[2]; 3-4d, 60 mg/kg group", "value": 0.0118, "unit": "mg"}, {"measurement": "percentage in parentheses, urine, without biliary drainage", "setting": "[2]; 3-4d, 60 mg/kg group", "value": 100, "unit": "%"}]}]}
